{
  "source": "patent US12071431B2",
  "about": "“Pyridin-sulfonamide compounds for the treatment of conditions related to interleukin 1 beta” (ALLINKY BIOPHARMA, priority 2018, dated 2024)",
  "tested_on": "human primary macrophages",
  "test": "Cell viability assessment (CellTiter-Glo) in the macrophage assay plates",
  "type": "cell-based",
  "parameters": "concentration or dose not given beside the values",
  "details": "CellTiter-Glo luminescent assay",
  "protocol": "2×10^5 PBMCs at a total volume of 200 μL/well were plated into a 96-well plate and incubated for 4 hrs at 37° C. in a CO2 incubator to allow the monocytes to settle, leaving the lymphocytes in suspension. Following incubation, 100 μL were aspirated out of each well to ensure removal of the lymphocyte population. The monocytes were differentiated to macrophages by addition of 200 ng/mL of recombinant human GM-CSF (4 mg/mL stock) and incubated at 37° C./5% CO2 for 6 days. The medium was changed every two days by removing half the volume of medium in the well and re-supplementing with fresh RPMI complete medium and recombinant human GM-CSF. Following differentiation, the cells were treated in duplicates with a compound according to the invention in a total volume of 50 μL, maintaining a final DMSO percentile of 0.5%. The plate was transferred to an incubator maintained at 37° C./5% CO2 for 2 hours. The cells were stimulated with 100 ng/mL of LPS (4×) (1 mg/mL stock) in a total volume of 50 μL. The plate was transferred to an incubator maintained at 37° C./5% CO2 for 16 hours. 100 μl/well volume of CellTiter-Glo® luminescent reagent was added to the assay plates and incubated at room temperature for 30 mins on a plate shaker. Following incubation, the luminescent signal of each well was determined using a microplate reader (Perkin Elmer ENVISION 2104). Cytotoxicity of the test compounds was determined utilizing the following formula: % Cytotoxicity=100−(100*(Average Test Compound Counts−Average Negative Control Counts)/(Average Positive Control Counts−Average Negative Control Counts)) All of the “Counts” stated in this formula are derived from “luminescent signal” determined as described for the cytokine viability assessment.",
  "data": [
    {"compound": "CCOc1ccc(Oc2cc(S(=O)(=O)N(C)C)cnc2N2CCC(Oc3ccc(Cl)cc3)CC2)cc1", "note": "[Compound 7]", "values": [
      {"measurement": "Cell viability", "value": 100, "unit": "%"}
    ]}
  ]
}
